According to patent US20040261139A1, “Androgen receptor knock-out transgenic animals” (priority 2001, published 2004):
Where two headings read alike, the source gives them in different places.

Columns and labels:
[1] = test system: ZR-75-1 tumors; conditions: ovarectomized nude mice, estradiol and DHT pellets; expected result
Experimental: (§1) After the initial in vitro characterization of the ARKO cells, mouse xenograft experiments are performed. The ARKO cells are subcutaneously injected into ovarectomized nude mice and the parental cell lines serve as xenograft controls. This experiment allows for the comparison of AR positive and AR negative breast carcinoma cells in animals that carry a functional AR gene without the potential confounding effects of using differently derived tumor cell lines. Tumor growth rate is compared in ARKO and parental cell line recipients in response to estradiol treatment, DHT treatment, or combined administration of estradiol and DHT. […] In addition to growth rate, tumors are examined histologically to determine the morphology and degree of vascularization between ARKO cell tumors and tumors generated by the parental cell lines under the different hormonal regimes.
(§2) Female homozygous nude mice (obtained from the Jackson Laboratory) are ovarectomized. […] Ovarectomized mice are also implanted with 1.5 mg 90 day release progesterone hormonal tablets. Only the ovarian cancer based cell lines will be examined in progesterone treated animals. Animals will be subcutaneously injected with […] of the ARKO or parental cells at the time of hormonal implant Hormonal pellets will be replaced as required.

[2] = test system: ZR-ARKO derived tumors; conditions: ovarectomized nude mice, estradiol and DHT pellets; expected result
Experimental: as §1, §2

[3] = test system: p21 (WAF1/CIP1) gene; experiment: Endogenous p21 (WAF1/CIP1) gene expression in PC-3 (AR2) cells stably transfected with AR; type: cell-based
Experimental: (§3) A. MCF-7 cells were transfected using Superfect (Qiagen) with 2 μg of pSG5-AR with or without 4 μg of BRCA1, as indicated. Cells were cultured in the presence of 10 nM DHT or vehicle, as indicated. B. PC-3(AR2) cells were transfected under the same conditions as the MCF-7 cells in A. except that AR was not transfected. […] PC-3(AR2) cells transfected with BRCA1 were cultured in the presence of vehicle, 10 nM DHT, or 1 μM hydroxyflutamide (HF).
(§4) The ability of AR and BRCA1 to regulate the endogenous p21 (WAF1/CIP1) gene in MCF-7 breast cancer cells was examined.

[4] = test system: p21 (WAF1/CIP1) gene; conditions: 10 nM DHT, MCF-7 cells transfected with AR
Experimental: as §3, §4

[5] = biological target: T1, AR (Homo sapiens, UniProt P10275); experiment: AR transcriptional activity, MMTV-CAT reporter gene in DU145 cells transfected with AR with ARA70 or empty vector; type: cell-based; conditions: 10^-10 to 10^-6 M, presence or absence of ARA70
T1 construct: expressed in transfected cells; host or cells: DU145
T1 sequence (P10275 1-920): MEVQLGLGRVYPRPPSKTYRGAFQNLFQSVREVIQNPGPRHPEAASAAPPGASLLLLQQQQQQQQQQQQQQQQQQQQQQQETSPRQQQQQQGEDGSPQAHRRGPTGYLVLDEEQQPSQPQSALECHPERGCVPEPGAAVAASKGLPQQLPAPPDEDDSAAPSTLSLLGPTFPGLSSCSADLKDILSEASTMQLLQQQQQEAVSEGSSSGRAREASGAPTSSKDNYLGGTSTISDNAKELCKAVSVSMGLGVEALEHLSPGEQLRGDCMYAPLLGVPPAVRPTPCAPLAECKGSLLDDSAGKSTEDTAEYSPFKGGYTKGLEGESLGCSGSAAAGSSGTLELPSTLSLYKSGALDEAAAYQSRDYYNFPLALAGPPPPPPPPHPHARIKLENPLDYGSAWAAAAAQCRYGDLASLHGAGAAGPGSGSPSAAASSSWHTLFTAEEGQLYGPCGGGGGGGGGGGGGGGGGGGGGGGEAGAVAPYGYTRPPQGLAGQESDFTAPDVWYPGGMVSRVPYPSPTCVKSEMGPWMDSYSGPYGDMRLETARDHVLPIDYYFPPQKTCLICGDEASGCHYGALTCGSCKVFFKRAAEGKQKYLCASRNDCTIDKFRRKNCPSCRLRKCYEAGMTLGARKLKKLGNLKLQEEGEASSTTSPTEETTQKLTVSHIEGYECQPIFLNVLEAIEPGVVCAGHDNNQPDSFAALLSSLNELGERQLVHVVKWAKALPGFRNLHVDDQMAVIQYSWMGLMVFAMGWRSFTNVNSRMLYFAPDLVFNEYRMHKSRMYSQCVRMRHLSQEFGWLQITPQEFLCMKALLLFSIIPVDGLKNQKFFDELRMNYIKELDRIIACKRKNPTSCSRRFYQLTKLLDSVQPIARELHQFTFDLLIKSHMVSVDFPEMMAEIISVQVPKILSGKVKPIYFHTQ
Description: The DHT treatments were taken as the positive control. Data represents an average of three independent experiments.
PSA is an androgen target gene that is not transcriptionally activated by the ER (58).

C[C@]12CCC(=O)C[C@@H]1CC[C@@H]1[C@@H]2CC[C@]2(C)[C@@H](O)CC[C@@H]12 [DHT, 5α-dihydrotestosterone]
estradiol-mediated proliferation of ZR-75-1 tumors [1]: expected to inhibit | estradiol induced proliferation of ZR-ARKO derived tumors in the presence of DHT [2]: expected to continue estradiol induced proliferation | endogenous p21 (WAF1/CIP1) gene expression ([3]; 10 nM DHT, PC-3 (AR2) cells): confirmed | endogenous p21 (WAF1/CIP1) gene expression [4]: induced endogenous p21 (WAF1/CIP1) gene expression

C[C@]12CC[C@@H]3c4ccc(O)cc4C[C@@H](CCCCCCCCC[S+]([O-])CCCC(F)(F)C(F)(F)F)[C@H]3[C@@H]1CC[C@@H]2O (stereo partly drawn) [ICI182, 780]
induction of AR mediated transcription [5]: unable to induce AR mediated transcription

CC(C)(O)C(=O)Nc1ccc([N+](=O)[O-])c(C(F)(F)F)c1 [hydroxyflutamide]
effect on DHT induction of p21 (WAF1/CIP1) ([3]; 1 μM hydroxyflutamide, PC-3 (AR2) cells transfected with BRCA1): blocks the DHT induction
